The nature of data set [1]: Permeability across basolateral to apical side in human Caco-2 cells. The class given is ADME, cell-based. The following applies: read-out: permeability.
Data set [2] can be described thus: Solubility of compound in pH 7.4 buffer at 1 uM. The class given is physicochemical.
A short description of data set [3]: Clearance in human hepatocytes assessed per million cells at 1 uM. The following applies: read-out: CLH. The class given is ADME, cell-based, Hepatocyte.
Data set [4] in a line: Permeability across apical to basolateral side in human Caco-2 cells. The class given is ADME, cell-based. The following applies: read-out: permeability.
The next data set in a line: in vitro. The following applies: human, Caco-2.
The species named for a further data set is Homo sapiens. Put plainly: Selectivity ratio of Kb for antagonist activity at human alpha2A receptor stably expressed in CHO cells to Kb for antagonist activity at human alpha2C receptor stably expressed in CHO cells. The class given is cell-based.
Data set [5] can be described thus: Clearance in rat hepatocytes assessed per million cells at 1 uM. The class given is ADME, cell-based, Hepatocyte. The following applies: read-out: CLH.
Data set [6] is described as follows: Lipophilicity, log D of compound at pH 7.4. The class given is physicochemical. As to conditions: buffer.
Data set [7] is described as follows: Unbound Cmax in rat brain at 1 mg/kg, po by rapid equilibrium dialysis method. The class given is ADME, organism-based. As to conditions: in vivo.
The nature of data set [8]: Unbound fraction in rat brain at 1 mg/kg, po by rapid equilibrium dialysis method. The class given is ADME, organism-based.
Data set [9] in a line: Tmax in rat brain at 1 mg/kg, po. The class given is ADME, organism-based.
Data set [10] can be described thus: Cmax in rat brain at 1 mg/kg, po. The class given is ADME, organism-based. Also noted: dose 1 mg/kg, route po.
Data set [11] can be described thus: Unbound brain-to-plasma concentration ratio in rat at 1 mg/kg, po. The class given is ADME, organism-based. The following applies: read-out: K(p,uu,brain).
A short description of data set [12]: AUC (0 to 6 hrs) in rat brain at 1 mg/kg, po. The class given is ADME, organism-based. Also noted: time < 6 hr, dose 1 mg/kg, route po. The following applies: in vivo.
Data set [13] can be described thus: Unbound fraction in rat plasma at 1 mg/kg, po by rapid equilibrium dialysis method. The class given is ADME, organism-based.
Data set [14] can be described thus: AUC (0 to 6 hrs) in rat plasma at 1 mg/kg, po. Set-up: time < 6 hr, dose 1 mg/kg, route po. The class given is ADME, organism-based.
A short description of data set [15]: Cmax in rat plasma at 1 mg/kg, po. The class given is ADME, organism-based. Also noted: dose 1 mg/kg, route po.
Data set [16] can be described thus: Unbound Cmax in rat plasma at 1 mg/kg, po by rapid equilibrium dialysis method. The class given is ADME, organism-based. The following applies: in vivo.
A short description of data set [17]: Tmax in rat plasma at 1 mg/kg, po. The class given is ADME, organism-based.

Converted amounts (≈) assume the structure as drawn. Bounds are passed on as bounds.

The values below come from ChEMBL document CHEMBL5126560, “2,3-Dihydrobenzo-dioxine piperidine derivatives as potent and selective α2c antagonists” (Bioorg Med Chem Lett, 2022).

Description for in vitro: Efflux ratio of permeability across basolateral to apical side over apical to basolateral side in human Caco-2 cells

As to `COCc1cccnc1N1CCN(C[C@H]2COc3ccccc3O2)CC1` [ORM-13070], in data set [1], the Papp B→A is 45 ×10⁻⁶ cm/s. In addition, in data set [2], the solubility at 1 µM is 176 µM (≈ 62.6 µg/mL). Also, the hepatocyte CLint at 1 µM turned out to be 38.7 µL/min/1e6 cells in data set [3] and 135 µL/min/1e6 cells in data set [5]. In addition, the Papp A→B in data set [4] was found to be 44.9 ×10⁻⁶ cm/s. Also, the efflux ratio in “in vitro” was 1. Also, in the data set listed under Homo sapiens, the Selectivity ratio is 4330. This compound showed a log distribution coefficient (logD) in data set [6] of 3.3.
As for `CCN1C(=O)C(=O)N([C@H]2CCCN(C[C@H]3COc4ccccc4O3)C2)C1=O`, the fCmax is on record as 18 nM in data set [7] and 44 nM in data set [16]. Also, the unbound share (fraction unbound) in [8] worked out at 0.096; in [13], 0.078. Further, the Tmax in [9] and in data set [17] was 30 min throughout. The peak concentration (Cmax) in [10] worked out at 72 ng/g; in [15], 209 ng/mL. Moreover, the Kp uu in data set [11] came to 0.4. For the same compound, the AUC in data set [12] is 91 ng·h/g. The compound also had an AUC(0-t) at 6 h in data set [14] of 261 ng·h/mL.
Turning to `Oc1cccc([C@H]2CCCN(C[C@H]3COc4ccccc4O3)C2)c1`, in data set [1], the Papp B→A turned out to be 24.2 ×10⁻⁶ cm/s. Further, the concentration in solution in [2] (solubility at 1 µM) came to 18 µM (≈ 5.86 µg/mL). Besides, the hepatocyte CLint at 1 µM in data set [3] was found to be 294 µL/min/1e6 cells; in data set [5] it was 682 µL/min/1e6 cells. The fCmax in [7] is on record as under 0.09 nM; in [16], under 0.06 nM. Besides, the Papp A→B in data set [4] came out at 16.1 ×10⁻⁶ cm/s. Further, the efflux ratio in “in vitro” worked out at 1.5. Moreover, the Selectivity ratio in the data set listed under Homo sapiens stood at 1950. Further, the fraction unbound in [8] and in data set [13] was under 0.01 in each case. The Tmax came out at 360 min in data set [9] and 30 min in data set [17]. Besides, the Cmax in [10] worked out at 3 ng/g; in data set [15], 2 ng/mL. The AUC in data set [12] amounted to 14 ng·h/g. In data set [6] (read-out: logD), the pH-dependent lipophilicity (logD) is 3.4. The same compound had an AUC(0-t) at 6 h in data set [14] of 9 ng·h/mL.
